Experiments:
human PPARδ = molecular target: T1, human PPARδ (Homo sapiens, UniProt Q03181); test: PPARδ agonist reporter assay (Gal4 hybrid receptor, luciferase, CHO cells); assay type: cell-based
T1 construct: expressed in transfected cells; host or cells: CHO
T1 sequence (Q03181 211-439 limits assumed): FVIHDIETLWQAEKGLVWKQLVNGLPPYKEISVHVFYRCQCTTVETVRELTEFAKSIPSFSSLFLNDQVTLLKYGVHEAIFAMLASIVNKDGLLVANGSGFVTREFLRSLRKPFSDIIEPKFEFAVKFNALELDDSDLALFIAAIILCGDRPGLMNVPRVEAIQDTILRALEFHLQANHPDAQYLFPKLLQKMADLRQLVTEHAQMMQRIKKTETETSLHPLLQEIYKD

human PPARγ = molecular target: T2, human PPARγ (Homo sapiens, UniProt P37231); test: PPARγ agonist reporter assay (Gal4 hybrid receptor, luciferase, CHO cells); assay type: cell-based
T2 construct: expressed in transfected cells; host or cells: CHO
T2 sequence (P37231 238-503 limits assumed): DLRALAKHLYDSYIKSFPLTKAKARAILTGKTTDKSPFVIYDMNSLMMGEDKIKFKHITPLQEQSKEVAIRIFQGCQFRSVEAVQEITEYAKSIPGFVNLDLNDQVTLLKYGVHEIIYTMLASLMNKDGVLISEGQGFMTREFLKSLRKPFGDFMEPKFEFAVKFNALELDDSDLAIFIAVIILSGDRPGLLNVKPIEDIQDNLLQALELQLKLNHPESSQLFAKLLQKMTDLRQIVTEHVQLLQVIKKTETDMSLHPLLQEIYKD

NF-κB reporter cells = test: Live cell multiplex assay in the NF-κB antagonist assay; assay type: cell-based, human
Procedure: A vehicle control was prepared.

Nrf2 = molecular target: T3, Nrf2 (Homo sapiens, UniProt Q16236); test: Nrf2 agonist reporter assay (native receptor, ARE-luciferase, CV1 cells); assay type: cell-based; set-up: comprising either the native receptor (Nrf2 and NF-κB); expressed in transfected cells; host or cells: CV1
T3 sequence (Q16236 1-605): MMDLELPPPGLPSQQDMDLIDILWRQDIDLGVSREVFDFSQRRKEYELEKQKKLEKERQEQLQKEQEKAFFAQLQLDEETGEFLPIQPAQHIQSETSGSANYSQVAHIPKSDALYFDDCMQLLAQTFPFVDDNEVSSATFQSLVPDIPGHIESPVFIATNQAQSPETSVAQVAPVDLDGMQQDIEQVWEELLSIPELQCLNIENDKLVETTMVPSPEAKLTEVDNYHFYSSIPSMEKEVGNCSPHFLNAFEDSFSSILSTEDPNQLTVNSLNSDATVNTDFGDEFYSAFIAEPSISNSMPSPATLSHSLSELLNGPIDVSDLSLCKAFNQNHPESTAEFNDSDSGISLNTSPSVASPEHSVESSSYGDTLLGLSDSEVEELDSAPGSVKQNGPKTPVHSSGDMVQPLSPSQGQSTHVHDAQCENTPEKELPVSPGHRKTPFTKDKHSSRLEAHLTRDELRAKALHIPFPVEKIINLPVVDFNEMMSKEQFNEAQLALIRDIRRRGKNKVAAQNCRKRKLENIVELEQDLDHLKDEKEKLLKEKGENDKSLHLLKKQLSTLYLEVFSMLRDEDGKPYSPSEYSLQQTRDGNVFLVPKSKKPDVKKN

O=C(O)CCCCC1CCSS1 (racemic) [Alpha lipoic acid, alpha lipoic acid]
PPARδ Fold-Activation (human PPARδ; 1.42 μg/ml active ingredient): 1.5 fold
PPARδ Fold-Activation (human PPARδ; 4.25 μg/ml active ingredient): 1.1 fold
PPARδ Fold-Activation (human PPARδ; 12.7 μg/ml active ingredient): 0.80 fold
PPARδ Fold-Activation (human PPARδ; 38.23 μg/ml active ingredient): 0.52 fold
PPARδ Fold-Activation (human PPARδ; 114.70 μg/ml active ingredient): 0.29 fold
PPARγ Fold-Activation (human PPARγ; 1.42 μg/ml active ingredient): 1.1 fold
PPARγ Fold-Activation (human PPARγ; 4.25 μg/ml active ingredient): 1.1 fold
PPARγ Fold-Activation (human PPARγ; 12.7 μg/ml active ingredient): 1.3 fold
PPARγ Fold-Activation (human PPARγ; 38.23 μg/ml active ingredient): 1.4 fold
PPARγ Fold-Activation (human PPARγ; 114.70 μg/ml active ingredient): 3.4 fold
agonist activity against human PPARγ (human PPARγ; at the concentrations tested): very low-level agonist activity
induction concentration (PPARγ) (human PPARγ; in the mixture): 1.22 µg/mL
induction concentration (PPARγ) (human PPARγ; used alone): 114.8 µg/mL
NF-κB % Live Cell (NF-κB reporter cells; 1.42 μg/ml active ingredient): 100%
NF-κB % Live Cell (NF-κB reporter cells; 4.25 μg/ml active ingredient): 104%
NF-κB % Live Cell (NF-κB reporter cells; 12.7 μg/ml active ingredient): 102%
NF-κB % Live Cell (NF-κB reporter cells; 38.23 μg/ml active ingredient): 104%
NF-κB % Live Cell (NF-κB reporter cells; 114.70 μg/ml active ingredient): 105%
Nrf2 Fold-Activation (Nrf2; 1.42 μg/ml active ingredient): 1.4 fold
Nrf2 Fold-Activation (Nrf2; 4.25 μg/ml active ingredient): 1.4 fold
Nrf2 Fold-Activation (Nrf2; 12.7 μg/ml active ingredient): 1.5 fold
Nrf2 Fold-Activation (Nrf2; 38.23 μg/ml active ingredient): 1.5 fold
Nrf2 Fold-Activation (Nrf2; 114.70 μg/ml active ingredient): 2.4 fold
agonist activity against human Nrf2 (Nrf2; at the concentrations tested): very low-level agonist activity
